Usually inhibition stands for the drop in the measured response relative to a control, in per cent.

Results on 3 compounds are retold here after patent US20070202079A1, “Therapeutic compositions and methods useful in modulating protein tyrosine phosphatases” (priority 2006, published 2007).

For one assay, the target named is T1, MKP1 (Homo sapiens, UniProt P28562).
T1 construct: a pGEX construct containing the coding region of MKP1 cDNA derived by RT-PCR; made in house; host or cells: DH5a bacteria (E. coli)
T1 sequence (P28562 1-367): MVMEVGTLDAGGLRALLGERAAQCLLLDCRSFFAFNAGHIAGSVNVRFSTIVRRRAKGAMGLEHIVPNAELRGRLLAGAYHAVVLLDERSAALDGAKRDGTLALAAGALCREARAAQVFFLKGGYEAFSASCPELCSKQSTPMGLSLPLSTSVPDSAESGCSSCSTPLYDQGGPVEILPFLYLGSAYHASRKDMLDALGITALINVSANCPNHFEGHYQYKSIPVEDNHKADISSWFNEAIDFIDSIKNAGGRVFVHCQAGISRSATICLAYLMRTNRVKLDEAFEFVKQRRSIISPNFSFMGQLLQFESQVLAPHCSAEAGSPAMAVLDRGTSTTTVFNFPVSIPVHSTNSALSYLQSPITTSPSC
Briefly: in vitro PTPase assay, GST/MKP1. The class given is biochemical. The note with it: for inhibition of MKP1: levamisole, pentamidine, ketoconazole. How it is done:
In vitro PTPase activities were measured using the commercial protein tyrosine phosphatase assay kit (Upstate Biotechnology, Inc. (“UBI”)) following established procedure known to one of skill in the art. This assay measures the in vitro dephosphorylation of a synthetic phosphotyrosine peptide of the sequence Arg-Arg-Leu-Ile-Glu-Asp-Ala-Gle-T- -yr-Ala-Ala-Arg-Gly, wherein the tyrosine is phosphorylated (SEQ ID NO: 3). Briefly, 0.01 μg of GST/PTPase fusion proteins was incubated in 50 μl of Tris buffer (10 mM Tris, pH 7.4) containing different concentrations of inhibitors or chemicals (0-1,000 μg/ml) at 22° C. for 10 minutes, followed by addition of 0.2 mM of the phosphotyrosine peptide and incubation at 22° C. for 18 hours. 100 μl of Malachite Green solution was added and incubated for 5 minutes, and the absorbance at 660 nm was measured after 5 minutes.
In vitro PTPase assays were used to determine the effects of levamisole (Sigma), pentamidine (American Pharmaceutical Partners, Inc.), and ketoconazole (Sigma) on recombinant PTPases, following established procedures (Pathak et al., J. Immunol. 167, 3391 (2001); Pathak et al., Leukemia 16, 2285 (2002), Yi et al., J. Immunol. 169, 5978 (2002)) using a synthetic phosphotyrosine peptide or DiFMUP as the substrate as detailed above in section I.A.2.

Another assay relates to WM9 cells. Briefly: WM9 cell growth, MTT. It counts as cell-based, human. How it is done:
For cell proliferation assays, cells were grown in 10% FCS culture medium containing various amounts of IFNs and/or sodium stibogluconate in 96 well plates and cultured at 37° C. for 3 or 6 days as indicated. The numbers of viable cells in proliferation assays were determined by MTT assays as described in Phatak et al., J. Immunol. 167, 3391 (2001).
Renca (Murphy, G. P., and W. J. Hrushesky. 1973. A murine renal cell carcinoma. J Natl Cancer Inst 50:1013), Jurkat (Gillis, S., and J. Watson. 1980. Biochemical and biological characterization of lymphocyte regulatory molecules. V. Identification of an interleukin 2-producing human leukemia T cell line. J Exp Med 152:1709) and WM9 (Forsberg, K., I. Valyi-Nagy, C. H. Heldin, M. Herlyn, and B. Westermark. 1993. Platelet-derived growth factor (PDGF) in oncogenesis: development of a vascular connective tissue stroma in xenotransplanted human melanoma producing PDGF-BB. Proc Natl Acad Sci USA 90:393) cell lines were obtained from a colleague at the Cleveland Clinic Foundation (CCF) and cultured in RPMI 1640 medium supplemented with 10% fetal calf serum (FCS). Recombinant IL-2 (Proleukin, 22 million IU/1.3 mg, Chiron, Emeryville, Calif.) was purchased from the CCF pharmacy. SSG has been described previously (Yi, T., M. K. Pathak, D. J. Lindner, M. E. Ketterer, C. Farver, and E. C. Borden. 2002. Anticancer activity of sodium stibogluconate in synergy with IFNs. J Immunol 169:5978).
NIH3T3 (Yi, et al., Blood 85, 87 (1995)), WM9 (Forsberg, et al., Proc. Nat. Acad Sci. USA 90, 393 (1993)), DU145 (Mickey, et al., Cancer Res. 37, 4049 (1977)), LoVo (Drewinko, et al., Cancer Res. 36, 467 (1976)), HEY (Buick, et al., Cancer Res. 45, 3668 (1985)), U251 (Yoshida, et al., Cancer 50, 410 (1982)), A549 (Giard, et al., J. Natl. Cancer Inst. 51, 1417 (1973)) and SK-N-SH (Helson, et al., Cancer Res. 35, 2594 (1975)) cell lines have been described and were cultured in RPMI 1640 supplemented with 10% fetal calf serum (FCS). For measurement of sodium stibogluconate effects on cell growth in vitro, cells were cultured in the absence (−) or presence (+) of various amounts of sodium stibogluconate for 6 days with viable cells quantified by MTT assays (Mosmann, J. Immunol. Methods 65, 55 (1983)). Percentages of growth inhibition by sodium stibogluconate were calculated (.+−.x%).

Where two headings read alike, the source gives them in different places.

Regarding `CC(=O)N1CCN(c2ccc(OCC3COC(Cn4ccnc4)(c4ccc(Cl)cc4Cl)O3)cc2)CC1` (centres unmarked) [ketoconazole], at MKP1, the “inhibition of MKP1” value was “substantial inhibition”. The “effect on IFN-alpha activity, WM9” value with WM9 cells (40 μg/ml) is recorded as “minor augmenting effect”. Besides, in the assay with WM9 cells (0.625-20 μg/ml, single agent or with IFN-alpha), the “activity against WM9 cells” value is reported as “no apparent activity”. In addition, the inhibition at 40 µg/mL in the assay on WM9 cells (Homo sapiens, WM9, 144 h, single agent, 40 μg/ml, 6 days) is 67%.

Take `N=C(N)c1ccc(OCCCCCOc2ccc(C(=N)N)cc2)cc1` [pentamidine]: on MKP1, the “inhibition of MKP1” value is “substantial inhibition”. The “effect on IFN-alpha-induced growth inhibition of WM9” value in the assay on WM9 cells (most obviously at 0.625-1.25 μg/ml) was “augmented IFN-alpha-induced growth inhibition”. Besides, the “growth inhibition of WM9 cells” value in the assay with WM9 cells (single agent, 2.5-5 μg/ml, 6 days) is 86-97%.

In the case of `O.O.O.O.O.O.O.O.O.O=C([O-])[C@@H]1[O][Sb]2([O-])([O][Sb]34([OH])[O][C@H]([C@H](O)CO)[C@H]([O]3)[C@H](C(=O)[O-])[O]4)[O][C@H]([C@H](O)CO)[C@@H]1[O]2.[Na+].[Na+].[Na+]` [sodium stibogluconate], the figures for the “inhibitory activity against MKP1” value against MKP1 and on MKP1 (listed as SS) were “no obvious inhibitory activity” and “no obvious effects”, respectively. Also, in the assay on WM9 cells (50 μg/ml and 100 μg/ml, day 6 culture), the “WM9 cells, single agent” value is “killed all cells”. Further, the “WM9 cell growth in culture” value in the assay on WM9 cells (SSG, 6 days, comparable conditions) was “inhibited by SSG in a dose-dependent manner”.
